T/C data for 26 compounds are collected here from PubChem BioAssay AID330 (DTP/NCI, 2004).

Where “and” joins values, the source holds several entries; their conditions need not be identical. Equal values may be shown once. Inconclusive results and toxic doses are left out.

The subject of this assay is P388 leukemia ip, CD2F1 mice, survival T/C. As to the kind of experiment: NCI In Vivo Anticancer Drug Screen. Data for tumor model P388 Leukemia (intraperitoneal) in CD2F1 (CDF1) mice. The note with it: endpoint: median survival time, higher = longer survival. The essentials:
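Mice carrying the transplanted tumor received test compound or vehicle. Survival was recorded in each group, and the value is the treated-group measurement divided by that of the vehicle-treated control group.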

Where [1] appears, read: dose: 100.0 mg/kg/injection, schedule: Q04DX002 (ip), vehicle: saline.
The mark [2] stands for this setting: dose: 200.0 mg/kg/injection, schedule: Q04DX002 (ip), vehicle: saline.
Where [3] appears, read: dose: 400.0 mg/kg/injection, schedule: Q04DX002 (ip), vehicle: saline.
Where [4] appears, read: dose: 60.0 mg/kg/injection, schedule: Q01DX005 (ip), vehicle: Klucel (hydroxypropylcellulose) (HPC).
Where [5] appears, read: dose: 120.0 mg/kg/injection, schedule: Q01DX005 (ip), vehicle: Klucel (hydroxypropylcellulose) (HPC).
Setting [6] is: dose: 240.0 mg/kg/injection, schedule: Q01DX005 (ip), vehicle: Klucel (hydroxypropylcellulose) (HPC).
The mark [7] stands for this setting: dose: 60.0 mg/kg/injection, schedule: Q01DX005 (ip), vehicle: saline.
Setting [8] is: dose: 50.0 mg/kg/injection, schedule: Q01DX009 (ip), vehicle: Klucel (hydroxypropylcellulose) (HPC).
Where [9] appears, read: dose: 100.0 mg/kg/injection, schedule: Q01DX009 (ip), vehicle: Klucel (hydroxypropylcellulose) (HPC).
[10] abbreviates: dose: 200.0 mg/kg/injection, schedule: Q01DX009 (ip), vehicle: Klucel (hydroxypropylcellulose) (HPC).
Where [11] appears, read: dose: 100.0 mg/kg/injection, schedule: Q04DX002 (ip), vehicle: saline with Tween-80.
Where [12] appears, read: dose: 200.0 mg/kg/injection, schedule: Q04DX002 (ip), vehicle: saline with Tween-80.
Setting [13] is: dose: 400.0 mg/kg/injection, schedule: Q04DX002 (ip), vehicle: saline with Tween-80.
Setting [14] is: dose: 15.0 mg/kg/injection, schedule: Q01DX005 (ip), vehicle: saline.
The mark [15] stands for this setting: dose: 50.0 mg/kg/injection, schedule: Q01DX009 (ip), vehicle: saline with Tween-80.
Setting [16] is: dose: 100.0 mg/kg/injection, schedule: Q01DX009 (ip), vehicle: saline with Tween-80.
The mark [17] stands for this setting: dose: 200.0 mg/kg/injection, schedule: Q01DX009 (ip), vehicle: saline with Tween-80.
The mark [18] stands for this setting: dose: 50.0 mg/kg/injection, schedule: Q01DX005 (ip), vehicle: saline.
The mark [19] stands for this setting: dose: 50.0 mg/kg/injection, schedule: Q01DX005 (ip), vehicle: Klucel (hydroxypropylcellulose) (HPC).
The mark [20] stands for this setting: dose: 100.0 mg/kg/injection, schedule: Q01DX005 (ip), vehicle: Klucel (hydroxypropylcellulose) (HPC).
[21] abbreviates: dose: 6.25 mg/kg/injection, schedule: Q01DX005 (ip), vehicle: saline with Tween-80.
The mark [22] stands for this setting: dose: 12.5 mg/kg/injection, schedule: Q01DX005 (ip), vehicle: saline with Tween-80.

With `CC/C(=N/NS(=O)(=O)c1ccc(C)cc1)c1ccc([N+](=O)[O-])cc1`, the T/C is 100 % of control under setting [1], 105 % of control under setting [2] and 100 % of control under setting [3].
Consider `COc1ccc2c(=O)cc(-c3ccccc3)sc2c1`, for which the T/C runs as follows: under setting [4], 106 % of control; under setting [5], 104 % of control; under setting [6], 98 % of control.
With `COc1ccn(CC2(C)CO2)c(=O)n1` (stereo not given), the T/C is 103 % of control under setting [7]; 106 % of control (dose: 120.0 mg/kg/injection, schedule: Q01DX005 (ip), vehicle: saline); 104 % of control (dose: 240.0 mg/kg/injection, schedule: Q01DX005 (ip), vehicle: saline).
Consider `CCSc1nc2ccc(CN3C(=O)c4ccccc4C3=O)cc2s1`, for which the T/C was 92 % of control under setting [8], 89 % of control under setting [9] and 86 % of control under setting [10].
Regarding `O=C(CC(=NCC(O)CN=C(CC(=O)c1ccccc1)c1ccccc1)c1ccccc1)c1ccccc1` (stereo not given), the T/C is, setting by setting: under setting [11], 98 % of control; under setting [12], 98 % of control; under setting [13], 91 % of control.
Consider `CCCN1C(=O)C(C)N(S(=O)(=O)c2ccc(-n3nc(C)cc3C)cc2)C1=S` (stereo not given), for which the T/C reads like this: under setting [11], 94 % of control; under setting [12], 102 % of control; under setting [13], 100 % of control.
With `CCOC(=O)/C(=N\N=P(N(C)C)(N(C)C)N(C)C)[As](C)C`, the T/C (dose: 50.0 mg/kg/injection, schedule: Q01DX009 (ip), vehicle: saline) was 103 % of control and the T/C (dose: 100.0 mg/kg/injection, schedule: Q01DX009 (ip), vehicle: saline) is 99 % of control.
Regarding `Nc1cc2c3c(cccc3c1O)CC2`, the T/C by setting is: (dose: 6.25 mg/kg/injection, schedule: Q01DX005 (ip), vehicle: Klucel (hydroxypropylcellulose) (HPC)) 99 % of control; (dose: 12.5 mg/kg/injection, schedule: Q01DX005 (ip), vehicle: Klucel (hydroxypropylcellulose) (HPC)) 102 % of control; (dose: 25.0 mg/kg/injection, schedule: Q01DX005 (ip), vehicle: Klucel (hydroxypropylcellulose) (HPC)) 102 % of control.
For the compound `C/C=C(\C)C(=O)OC1C2C(C)=CC(=O)C(O)C2(C)C2C3(O)OCC24C1OC(=O)C(O)C4C(C)C3O` (stereo not given), the T/C is, setting by setting: (dose: 2.5 mg/kg/injection, schedule: Q01DX005 (ip), vehicle: saline) 154 % of control; (dose: 7.5 mg/kg/injection, schedule: Q01DX005 (ip), vehicle: Klucel (hydroxypropylcellulose) (HPC)) 175 % of control; (dose: 10.0 mg/kg/injection, schedule: Q01DX005 (ip), vehicle: saline) 154 % of control; (dose: 15.0 mg/kg/injection, schedule: Q01DX005 (ip), vehicle: Klucel (hydroxypropylcellulose) (HPC)) 180 % of control; under setting [14], 154 % of control; (dose: 30.0 mg/kg/injection, schedule: Q01DX005 (ip), vehicle: Klucel (hydroxypropylcellulose) (HPC)) 189 % of control.
Regarding `COc1ccc2ccc3ccc(OC)c(OC(C)=O)c3c2c1`, the T/C under setting [4] was 100 % of control, the T/C under setting [5] was 98 % of control and the T/C under setting [6] is 91 % of control.
For `CCN(CC)CCNc1ccc(C)c2sc3c(O)cccc3c(=O)c12`, the T/C is 104 % of control under setting [15], 100 % of control under setting [16] and 104 % of control under setting [17].
Turning to `Cc1csc(N)n1`, the T/C is, setting by setting: under setting [1], 97 % of control; under setting [2], 95 % of control; under setting [3], 101 % of control.
Regarding `NCC(c1ccccc1)C1CCCCC1` (stereo not given), the T/C is 103 % of control (dose: 12.5 mg/kg/injection, schedule: Q01DX005 (ip), vehicle: saline); 94 % of control (dose: 25.0 mg/kg/injection, schedule: Q01DX005 (ip), vehicle: saline); 100 % of control and 95 % of control under setting [18].
As for `[N-]=[N+]=NC1(N=[N+]=[N-])C(=O)Nc2ccc(Cl)cc2C1=O` (stereo not given), the T/C was 107 % of control under setting [19] and 88 % of control under setting [20].
Take `NCc1ccccc1Br`: the T/C runs as follows: (dose: 50.0 mg/kg/injection, schedule: Q01DX005 (ip), vehicle: distilled water + alcohol) 101 % of control; (dose: 100.0 mg/kg/injection, schedule: Q01DX005 (ip), vehicle: distilled water + alcohol) 100 % of control; (dose: 200.0 mg/kg/injection, schedule: Q01DX005 (ip), vehicle: distilled water + alcohol) 103 % of control.
As for `COC(=O)c1nc(N)nc(C(=O)OC)c1C(=O)c1ccc2ccccc2c1`, the T/C by setting is: under setting [4], 102 % of control; under setting [5], 101 % of control.
Consider `[Cu+2].[NH-]C(=O)NC([NH-])=O.[NH-]C(=O)NC([NH-])=O`, for which the T/C under setting [21] was 99 % of control and the T/C under setting [22] was 99 % of control.
Turning to `CCc1ccc[n+](-c2ccncc2CC)c1`, the T/C was 96 % of control under setting [14]; 100 % of control (dose: 30.0 mg/kg/injection, schedule: Q01DX005 (ip), vehicle: saline); 106 % of control and 88 % of control under setting [7].
For the compound `CN(C)Cc1c(/C=C/C2=[N+](C)c3ccccc3C2(C)C)[nH]c2ccccc12`, the T/C is 110 % of control under setting [8], 107 % of control under setting [9] and 110 % of control under setting [10].
Regarding `O=C1CCCCCC1Cc1cc(O)c(CC2CCCCCC2=O)cc1O` (stereo not given), the T/C is, setting by setting: (dose: 25.0 mg/kg/injection, schedule: Q01DX009 (ip), vehicle: saline with Tween-80) 96 % of control; under setting [15], 93 % of control; under setting [16], 98 % of control; under setting [17], 94 % of control.
Regarding `O=C(O)c1ccc[nH]c1=O`, the T/C by setting is: (dose: 25.0 mg/kg/injection, schedule: Q04DX003 (ip), vehicle: saline) 98 % of control; (dose: 50.0 mg/kg/injection, schedule: Q04DX003 (ip), vehicle: saline) 112 % of control; (dose: 100.0 mg/kg/injection, schedule: Q04DX003 (ip), vehicle: saline) 99 % of control; (dose: 200.0 mg/kg/injection, schedule: Q04DX003 (ip), vehicle: saline) 93 % of control.
Regarding `O=C1C=C2CCCCCCCCC(C1)C2` (stereo not given), the T/C was 99 % of control under setting [19]; 96 % of control under setting [20]; 89 % of control (dose: 200.0 mg/kg/injection, schedule: Q01DX005 (ip), vehicle: Klucel (hydroxypropylcellulose) (HPC)).
In the case of `NC(=O)C(CCCN=C(N)N)NC(=O)c1ccccc1` (stereo not given), the T/C was 105 % of control under setting [18]; 99 % of control (dose: 100.0 mg/kg/injection, schedule: Q01DX005 (ip), vehicle: saline); 105 % of control (dose: 200.0 mg/kg/injection, schedule: Q01DX005 (ip), vehicle: saline).
`Cc1ccc(N2CC(=O)N3CCCN3C(=O)C2)cc1`: the T/C reads like this: under setting [21], 98 % of control; under setting [22], 100 % of control; (dose: 25.0 mg/kg/injection, schedule: Q01DX005 (ip), vehicle: saline with Tween-80) 102 % of control.
For `CCOC(=O)CCC(C)(C#N)C(C#N)C(=O)OCC` (stereo not given), the T/C was 100 % of control under setting [16]; 100 % of control (dose: 100.0 mg/kg/injection, schedule: Q04DX003 (ip), vehicle: saline with Tween-80); 100 % of control (dose: 200.0 mg/kg/injection, schedule: Q04DX003 (ip), vehicle: saline with Tween-80); 100 % of control (dose: 400.0 mg/kg/injection, schedule: Q01DX009 (ip), vehicle: saline with Tween-80); 100 % of control (dose: 400.0 mg/kg/injection, schedule: Q04DX003 (ip), vehicle: saline with Tween-80).
For the compound `C=CCc1cc(OC)c(OCC=O)c(OC)c1`, the T/C reads like this: (dose: 100.0 mg/kg/injection, schedule: Q04DX002 (ip), vehicle: Klucel (hydroxypropylcellulose) (HPC)) 99 % of control; (dose: 200.0 mg/kg/injection, schedule: Q04DX002 (ip), vehicle: Klucel (hydroxypropylcellulose) (HPC)) 96 % of control.
